Molecules are shown by their SMILES.

For this test, the target named is T1, 5-hydroxytryptamine receptor 1A (Rattus norvegicus, UniProt P19327).
T1 sequence (P19327 whole entry): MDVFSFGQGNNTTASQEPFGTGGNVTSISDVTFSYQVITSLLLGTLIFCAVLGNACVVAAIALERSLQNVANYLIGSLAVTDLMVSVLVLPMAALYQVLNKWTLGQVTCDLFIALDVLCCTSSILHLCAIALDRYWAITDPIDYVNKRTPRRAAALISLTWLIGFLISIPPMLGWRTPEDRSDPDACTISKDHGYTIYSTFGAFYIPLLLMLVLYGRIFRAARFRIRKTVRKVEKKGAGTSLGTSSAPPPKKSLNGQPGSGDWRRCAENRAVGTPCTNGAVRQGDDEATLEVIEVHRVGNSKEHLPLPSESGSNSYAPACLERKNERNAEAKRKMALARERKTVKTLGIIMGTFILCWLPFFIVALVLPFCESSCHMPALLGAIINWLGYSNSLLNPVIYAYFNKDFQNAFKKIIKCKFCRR
In general, Ki refers to a dissociation constant, usually derived from enzyme kinetics or from competition with a known ligand. A higher Ki goes with a looser hold on the target. `C1=C(c2c[nH]c3ccccc23)CCNC1` gave a Ki of 141 nM.

For `CN(C)CCc1c[nH]c2cc3c(cc12)CCCO3`, affinity was put at a Ki of 603 nM.

`O=C1c2ccccc2C(=O)N1CCCCN1CCN(c2ccccn2)CC1` gave a Ki of 6.17 nM.

As for `CC(C)C(=O)N1CCN(c2cccc(Cl)c2)CC1`, the affinity corresponds to a Ki of 100000 nM.

`COc1ccccc1N1CCNCC1` had a Ki of 12.9 nM.

`COc1ccccc1OCCNCC(O)COc1cccc2[nH]c3ccccc3c12` (centres undefined) [CARVEDILOL] had a Ki of 3.16 nM.

The molecule `c1ccc(N2CCNCC2)cc1` [PHENYLPIPERAZINE] gave an inhibition constant Ki of 1510 nM.

`CN(C)CC(O)CO` (stereo in doubt; 123) showed a Ki of 4900 nM.

`c1ccc2c(c1)CCC2N1CCN(c2cccc3c2OCCO3)CC1` (centres undefined) showed a Ki of 1.82 nM.

The molecule `CCCOCOCCc1ccc(OCC(O)CNC(C)C)cc1` (centres undefined) had a Ki of 10000 nM.

Molecule `C#Cc1cccc2c1CC(N(CCC)CCC)CC2` (centres undefined) had a Ki of 15.8 nM.

Regarding `CN1CCN(c2nc3cc(C(F)(F)F)ccc3n3cccc23)CC1`, the Ki is 9.55 nM.

Turning to `COc1ccccc1N1CCN(CCCCNCc2ccccc2)CC1`, the affinity corresponds to a Ki of 60.3 nM.

In the case of `NCCc1c[nH]c2ccc(C(N)=O)cc12`, the affinity corresponds to a Ki of 0.295 nM.

Turning to `O=C1c2ccccc2C(=O)N1CCCCN1CCN(c2ccccc2Cl)CC1`, the affinity, expressed as Ki, was 5.01 nM.

For the molecule `COc1ccccc1N1CCN(CCCCNC(=O)C2CCCCC2)CC1`, the Ki is 0.603 nM.

Take `CCCN(C1COc2cccc(OC)c2C1)N1C(=O)c2ccccc2S1(=O)=O` (centres undefined): the Ki was 0.501 nM.

On to `COc1ccccc1N1CCN(CCCCNC2CC3CCC2C3)CC1` (centres undefined), for which the Ki is 3.98 nM.

Take `O=C1C=CC(c2[nH]c3ccccc3c2C2=CCNCC2)=NC1`: affinity was put at a Ki of 1510 nM.

Turning to `COc1ccccc1N1CCN(CCCN2C(=O)c3ccccc3C2=O)CC1`, the affinity, expressed as Ki, was 20 nM.

With `CCCN(CCCCN1C(=O)c2ccccc2C1=O)C1COc2cccc(OC)c2C1` (centres undefined), the Ki is 2.51 nM.

In the case of `Brc1ccc2[nH]cc(C3=CCNCC3)c2c1`, the Ki was 6.46 nM.

On to `O=[N+]([O-])c1ccc2[nH]cc(C3=CCNCC3)c2c1`, for which the affinity, expressed as Ki, was 18.2 nM.

As to `CCCN(CCCCN1C(=O)CC2(CCCC2)CC1=O)C1COc2cccc(OC)c2C1` (centres undefined), the Ki amounted to 0.1 nM.

`FC(F)(F)c1ccc2c(c1)nc(N1CCNCC1)c1cccn12` gave a Ki of 18.6 nM.

The molecule `CC1(C)CC(=O)N(CCCCN2CCN(c3ccccn3)CC2)C(=O)C1` returned a Ki of 70.8 nM.

`COc1cccc2c1CC(N)CC2` (centres undefined): the Ki was 178 nM.

In turn, `CCCN(CCCON1C(=O)CC2(CCCC2)CC1=O)C1COc2cccc(OC)c2C1` (centres undefined) had a Ki of 0.501 nM.

`CN1CC=C(c2c[nH]c3ccc(Cl)cc23)CC1` showed a Ki of 26.3 nM.

The molecule `CCN(CC)C(=O)Nc1ccc(OCC(O)CNC(C)(C)C)c(C(C)=O)c1` (centres undefined) [CELIPROLOL] had an inhibition constant (Ki) of 8910 nM.

The molecule `CCCN(CCC)C1CCc2cccc(C3CCCCC3)c2C1` (centres undefined) showed a Ki of 24 nM.

`CCCN(CCCCN1C(=O)c2ccccc2C1=O)C1COc2cccc(O)c2C1` (centres undefined) had a Ki of 44.7 nM.

Molecule `CCCN(CCCCN1C(=O)CC(C)(C)CC1=O)C1COc2cccc(OC)c2C1` (centres undefined) gave a Ki of 2 nM.

As to `C=C=CN1CCN(c2cccc(Cl)c2)CC1`, the affinity corresponds to a Ki of 251 nM.

In the case of `CCCN(CCNS(=O)(=O)c1ccc(C)cc1)C1COc2cccc(OC)c2C1` (centres undefined), the Ki was 1 nM.

As for `COc1c(Cl)cccc1N1CCNCC1`, the affinity, expressed as Ki, was 871 nM.

In the case of `CCCN(CCC)C1COc2cccc(OC)c2C1` (centres undefined), the affinity, expressed as Ki, was 10 nM.

`CCCCN(CCCC)CC(O)COc1cccc2ccccc12` (centres undefined) gave a Ki of 224 nM.

Molecule `CC(C)(C)NCC(O)COc1ccc2c(c1)C[C@H](O)[C@H](O)C2` (some centres undefined) showed a Ki of 1070 nM.

In the case of `C=CCN(CCC)C1CCc2cccc(OS(=O)(=O)C(F)(F)F)c2C1` (centres undefined), the Ki was 9.55 nM.

In the case of `CNCC(COc1cccc(C(F)(F)F)c1)c1ccccc1` (centres undefined), affinity was put at a Ki of 66100 nM.

The molecule `CCCN(CCC)C1COc2cccc(O)c2C1` (centres undefined) showed a Ki of 2 nM.

`O=C1c2ccccc2S(=O)(=O)N1CCCCN1CCN(c2ccccn2)CC1` had a Ki of 6.92 nM.

`CN1CC=C(c2c[nH]c3ccc(Br)cc23)CC1`: the affinity, expressed as Ki, was 15.1 nM.

The values above are taken from ChEMBL document CHEMBL1129278, “Binding of arylpiperazines, (aryloxy)propanolamines, and tetrahydropyridylindoles to the 5-HT1A receptor: contribution of the molecular lipophilicity potential to three-dimensional quantitative structure-affinity relationship models” (J Med Chem, 1996).
